23 molecules from patent US20250368628A1, “METHODS AND COMPOUNDS FOR MODULATING INHERITED GENETIC DISEASES” (Design Therapeutics, Inc., priority 2022, published 2025) can be followed below.

A word on the EC50: it is the concentration that produces a half-maximal response.

Assay [1] has as its system Myotonic Dystrophy 1 affected patient fibroblasts (Coriel GM04602; 1600 CTG repeats). As to the kind of experiment: DM1 foci reduction assay (EC50 assay; CAG10-Cy3 FISH, foci per nucleus). The class given is cell-based. The procedure, abridged:
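GM04602 DM1 patient fibroblasts (1600 CTG repeats) seeded 24 h, then treated 48 h at 37 °C with an 8-point 1:3 dose series from 3 μM. Cells PFA-fixed, ethanol-permeabilized and hybridized overnight with 5 nM CAG10-Cy3 probe, DAPI counterstained. Imaged at 20×, 4 fields per well, as average foci per nucleus.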

Assay [2] has as its system F35T cells. As to the kind of experiment: Foci reduction in FECD (CAG10-Cy3 FISH, foci per nucleus). Format: cell-based. The method, then:
F35T cells were cultured in media containing Opti-MEM (ThermoFisher) supplemented with 8% FBS, 20 μg/mL ascorbic acid, […] CaCl2, 0.08% chondroitin sulfate, 1×Pen/Strep, 100 μg/mL bovine pituitary extract, 5 ng/mL epidermal growth factor, and 20 ng/mL nerve growth factor. Throughout the culture, cells were maintained in an incubator at 37° C. and 5% CO2. Media was refreshed every 48 hours. Once cells reached adequate confluency, they were harvested and seeded in 96 well plates with a density of 5000 cells per well in 200 μL of the supplemented Opti-MEM media. Cells were returned to the incubator and left to settle for 24 hours at 37° C. and 5% CO2. Cells were then treated in 8-point dose response with compounds or negative controls and incubated for 48 hours at 37° C. and 5% CO2. After treatment, cells were fixed with 4% PFA for 20 minutes at room temperature, followed by permeabilization with 70% ethanol. Cells were incubated at −20° C. for a minimum of 1 hour and maximum of 72 hours, after which the ethanol was removed, and cells were washed with PBS. Cells were rehydrated with 30% formamide and 2×SSC buffer for 10 minutes at room temperature. Cells were then incubated overnight at 37° C. in the hybridization solution containing 30% formamide, 2×SSC, 55 mg/mL dextran sulfate, 2.75 mg/mL bovine serum albumin, 0.2 μg/mL Herring sperm DNA, 1% vanadyl-ribonucleoside complex, and 0.05% 10 μM CAG10-Cy3 probe. Cells were washed twice with 30% formamide in 2×SSC, incubating the cells while shaking with the second wash at 37° C. and 200 rpm for 60 minutes. Cells were stained with 5 mg/mL DAPI 1:1000 in PBS, incubating at room temperature for 5 minutes. Cells were then washed with PBS and sealed with adhesive foil, with each well containing a final volume of 150 μL PBS. Cells were imaged on a Cytation 5 and analyzed on a foci per nucleus basis.

[3] abbreviates: Homo sapiens, Fibroblast; DM1 patient fibroblasts, 48 h treatment, foci per nucleus; read-out: DM1 EC50, 48 h.
The mark [4] stands for this setting: F35T cells, 48 h treatment, foci per nucleus; read-out: FECD EC50, 48 h.

Where two headings read alike, the source gives them in different places. A value given as a limit tells only on which side of the number the result lay.

Regarding `CCCNC(=O)CCNC(=O)c1nc(NC(=O)c2cc(NC(=O)CCNC(=O)c3nc(NC(=O)CCCNC(=O)c4cc(NC(=O)c5nc(NC(=O)CCNC(=O)c6cc(NC(=O)c7nccn7C)cn6C)cn5C)cn4CCCO)cn3C)cn2C)cn1C` [Compound B-431], the EC50 was below 0.1 µM in assay [1] (Homo sapiens, Fibroblast; DM1 patient fibroblasts, foci per nucleus, 48 h treatment; read-out: DM1 EC50, 48 h) and below 0.1 µM in assay [2] (F35T cells, foci per nucleus, 48 h treatment; read-out: FECD EC50, 48 h).
In the case of `CCCCCCn1cc(NC(=O)c2nc(NC(=O)CCNC(=O)c3cc(NC(=O)c4nccn4C)cn3C)cn2C)cc1C(=O)NCCCC(=O)Nc1cn(C)c(C(=O)NCCC(=O)Nc2cc(C(=O)Nc3cn(C)c(C(=O)NCCC(=O)NCCC)n3)n(C)c2)n1` [Compound B-323], the EC50 in assay [1] (setting [3]) and in assay [2] (setting [4]) was below 0.1 µM in each case.
`Cn1cc(NC(=O)c2nc(NC(=O)CCNC(=O)c3cc(NC(=O)c4nccn4C)cn3C)cn2C)cc1C(=O)NCCCC(=O)Nc1cn(C)c(C(=O)NCCC(=O)Nc2cc(C(=O)Nc3cn(C)c(C(=O)NCCC(=O)N4CCC(C#CC5=CCN(C(=O)OCC6c7ccccc7-c7ccccc76)CC5)CC4)n3)n(C)c2)n1` [Compound B-345]: the EC50 is above 1 µM in assay [1] (setting [3]) and 0.5 to 1 µM in assay [2] (setting [4]).
Consider `CCCN(CCC)C(=O)CCNC(=O)c1nc(NC(=O)c2cc(NC(=O)CCNC(=O)c3nc(NC(=O)CCCNC(=O)c4cc(NC(=O)c5nc(NC(=O)CCNC(=O)c6cc(NC(=O)c7nccn7C)cn6C)cn5C)cn4C)cn3C)cn2C)cn1C` [Compound B-50], for which the EC50 was 0.1 to 0.5 µM in assay [1] (setting [3]) and below 0.1 µM in assay [2] (setting [4]).
Consider `CCCNC(=O)CCNC(=O)c1nc(NC(=O)c2cc(NC(=O)CCNC(=O)c3nc(NC(=O)CCCNC(=O)c4cc(NC(=O)c5nc(NC(=O)CCNC(=O)c6cc(NC(=O)c7nccn7C)cn6C)cn5C)cn4CCCCCN(CCOCCOCCOCCOC)CCOCCOCCOCCOC)cn3C)cn2C)cn1C` [Compound B-161], for which the EC50 is 0.5 to 1 µM in assay [1] (setting [3]) and 0.1 to 0.5 µM in assay [2] (setting [4]).
Take `CCCNC(=O)c1nc(NC(=O)c2cc(NC(=O)CCNC(=O)c3nc(NC(=O)[C@H](N)CCNC(=O)c4cc(NC(=O)c5nc(NC(=O)CCNC(=O)c6cc(NC(=O)c7nccn7C)cn6C)cn5C)cn4C)cn3C)cn2C)cn1C` [Compound B-409]: the EC50 in assay [1] (setting [3]) and in assay [2] (setting [4]) was below 0.1 µM in each case.
In the case of `Cn1cc(NC(=O)c2nc(NC(=O)CCNC(=O)c3cc(NC(=O)c4nccn4C)cn3C)cn2C)cc1C(=O)NCCCC(=O)Nc1cn(C)c(C(=O)NCCC(=O)Nc2cc(C(=O)Nc3cn(C)c(C(=O)NCCC(=O)NC(C)(C)C)n3)n(C)c2)n1` [Compound B-47], the EC50 in assay [1] (setting [3]) and in assay [2] (setting [4]) was 0.1 to 0.5 µM in each case.
With `Cn1cc(NC(=O)c2nc(NC(=O)CCNC(=O)c3cc(NC(=O)c4nccn4C)cn3C)cn2C)cc1C(=O)NCCCC(=O)Nc1cn(C)c(C(=O)NCCC(=O)Nc2cc(C(=O)Nc3cn(C)c(C(=O)NCCC(=O)N4CCC(N5CCN(CCOCCOCCOCCOCCNC(=O)OC(C)(C)C)CC5)CC4)n3)n(C)c2)n1` [Compound B-23], the 50% effective concentration (EC50) in assay [1] (setting [3]) was 0.1 to 0.5 µM; in assay [2] (setting [4]), above 1 µM.
On to `COCCOCCOCCOCCOCCOCCC(=O)NCCCCCCn1cc(NC(=O)c2nc(NC(=O)CCNC(=O)c3cc(NC(=O)c4nccn4C)cn3C)cn2C)cc1C(=O)NCCCC(=O)Nc1cn(C)c(C(=O)NCCC(=O)Nc2cc(C(=O)Nc3cn(C)c(C(=O)NCCCN(C)CCCNC(=O)c4cccc(C(=O)O)c4)n3)n(C)c2)n1` [Compound B-237], for which the EC50 in assay [1] (setting [3]) is 0.5 to 1 µM; in assay [2] (setting [4]), 0.1 to 0.5 µM.
In the case of `CSCCCCN1CCC(C#CC#CC2CCN(CCOCCOCCOCCNC(=O)CCNC(=O)c3nc(NC(=O)c4cc(NC(=O)CCNC(=O)c5nc(NC(=O)CCCNC(=O)c6cc(NC(=O)c7nc(NC(=O)CCNC(=O)c8cc(NC(=O)c9nccn9C)cn8C)cn7C)cn6C)cn5C)cn4C)cn3C)CC2)CC1` [Compound B-174], the EC50 in assay [1] (setting [3]) and in assay [2] (setting [4]) was 0.1 to 0.5 µM throughout.
In the case of `CN(CCCN)CCCNC(=O)c1cc(NC(=O)CCNC(=O)c2nc(NC(=O)CCCNC(=O)c3cc(NC(=O)c4nc(NC(=O)CCNC(=O)c5cc(NC(=O)c6nccn6C)cn5C)cn4C)cn3CCCCCCN=[N+]=[N-])cn2C)cn1C` [Compound B-358], the EC50 in assay [1] (setting [3]) and in assay [2] (setting [4]) was above 1 µM each time.
With `Cn1cc(NC(=O)c2nccn2C)cc1C(=O)NCCC(=O)Nc1cn(C)c(C(=O)Nc2cc(C(=O)NCCCC(=O)Nc3cn(C)c(C(=O)NCCC(=O)Nc4cc(C(=O)Nc5cn(C)c(C(=O)NCCC(=O)N6CCC(C#CC#CC7CCNCC7)CC6)n5)n(C)c4)n3)n(CCCOCCN)c2)n1` [Compound B-303], the EC50 in assay [1] (setting [3]) lay within 0.5 to 1 µM; in assay [2] (setting [4]), 0.1 to 0.5 µM.
For `CC(=O)NCCOCCn1cc(NC(=O)c2nc(NC(=O)CCNC(=O)c3cc(NC(=O)c4nccn4C)cn3C)cn2C)cc1C(=O)NCCCC(=O)Nc1cn(C)c(C(=O)NCCC(=O)Nc2cc(C(=O)Nc3cn(C)c(C(=O)NCCC(=O)N4CCC(C#CC#CC5CCN(C(C)=O)CC5)CC4)n3)n(C)c2)n1` [Compound B-299] the same measures were 0.1 to 0.5 µM and below 0.1 µM.
On to `CCCNC(=O)CCNC(=O)c1nc(NC(=O)c2cc(NC(=O)CCNC(=O)c3nc(NC(=O)CCCNC(=O)c4cc(NC(=O)c5nc(NC(=O)CCNC(=O)c6cc(NC(=O)c7nccn7C)cn6C)cn5C)cn4C(C)C)cn3C)cn2C)cn1C` [Compound B-319], for which the EC50 in assay [1] (setting [3]) was 0.1 to 0.5 µM; in assay [2] (setting [4]) it was below 0.1 µM.
As to `Cn1cc(NC(=O)c2nc(NC(=O)CCNC(=O)c3cc(NC(=O)c4nccn4C)cn3C)cn2C)cc1C(=O)NCCCC(=O)Nc1cn(C)c(C(=O)NCCC(=O)Nc2cc(C(=O)Nc3cn(C)c(C(=O)NCCC(=O)N4CCC(C5CN(C(=O)OC(C)(C)C)C5)CC4)n3)n(C)c2)n1` [Compound B-193], the EC50 in assay [1] (setting [3]) and in assay [2] (setting [4]) was below 0.1 µM each time.
For `CCCNC(=O)c1nc(NC(=O)c2cc(NC(=O)CCNC(=O)c3nc(NC(=O)CCCNC(=O)c4cc(NC(=O)c5nc(NC(=O)CCNC(=O)c6cc(NC(=O)c7nccn7C)cn6C)cn5C)cn4CCCCCCNC(=O)CCOCCOCCOCCOCCOCCOC)cn3C)cn2C)cn1C` [Compound B-235], the EC50 in assay [1] (setting [3]) and in assay [2] (setting [4]) was above 1 µM each time.
For the molecule `Cn1cc(NC(=O)c2nc(NC(=O)CCNC(=O)c3cc(NC(=O)c4nccn4C)cn3C)cn2C)cc1C(=O)NCCCC(=O)Nc1cn(C)c(C(=O)NCCC(=O)Nc2cc(C(=O)Nc3cn(C)c(C(=O)NCCC(=O)NCCOCCOCCOCCOCCOc4ccc(N)cc4)n3)n(C)c2)n1` [Compound B-12], the half-maximal effective concentration (EC50) in assay [1] (setting [3]) and in assay [2] (setting [4]) was 0.1 to 0.5 µM throughout.
Turning to `COCCOCCOCCOCCN(CCCCCn1cc(NC(=O)CCNC(=O)c2nc(NC(=O)CCCNC(=O)c3cc(NC(=O)c4nc(NC(=O)CCNC(=O)c5cc(NC(=O)c6nccn6C)cn5C)cn4C)cn3C)cn2C)cc1C(=O)Nc1cn(C)c(C(=O)NCCC(=O)N2CCC(N3CCNCC3)CC2)n1)CCOCCOCCOCCOC` [Compound B-158], the EC50 in assay [1] (setting [3]) and in assay [2] (setting [4]) was above 1 µM in each case.
In the case of `Cn1cc(NC(=O)c2nc(NC(=O)CCNC(=O)c3cc(NC(=O)c4nccn4C)cn3C)cn2C)cc1C(=O)NCCCC(=O)Nc1cn(C)c(C(=O)NCCC(=O)Nc2cc(C(=O)Nc3cn(C)c(C(=O)NCCC(=O)N4CCC(C5CNC5)CC4)n3)n(C)c2)n1` [Compound B-142], the EC50 in assay [1] (setting [3]) lay in the range of 0.1 to 0.5 µM; in assay [2] (setting [4]) it was 0.5 to 1 µM.
For `CCCNC(=O)c1nc(NC(=O)c2cc(NC(=O)CCNC(=O)c3nc(NC(=O)CCCNC(=O)c4cc(NC(=O)c5nc(NC(=O)CCNC(=O)c6cc(NC(=O)c7nccn7C)cn6C)cn5C)cn4CCCCCCn4cc(COCCOCCOCCOC)nn4)cn3C)cn2C)cn1C` [Compound B-376] the same measures were above 1 µM and 0.1 to 0.5 µM.
For the molecule `C=C(NCCC(=O)Nc1cc(C(=O)Nc2cn(C)c(C(=O)NCCC(=O)NCCC)n2)n(C)c1)c1nc(NC(=O)CCCNC(=O)c2cc(NC(=O)c3nc(NC(=O)CCNC(=O)c4cc(NC(=O)c5nccn5C)cn4C)cn3C)cn2CCCNC(=O)c2ccccc2)cn1C` [Compound B-399], the EC50 is 0.5 to 1 µM in assay [1] (setting [3]) and below 0.1 µM in assay [2] (setting [4]).
Consider `CN(CCCCCc1cccc(C(=O)O)c1)CCCNC(=O)c1nc(NC(=O)c2cc(NC(=O)CCNC(=O)c3nc(NC(=O)CCCNC(=O)c4cc(NC(=O)c5nc(NC(=O)CCNC(=O)c6cc(NC(=O)c7nccn7C)cn6C)cn5C)cn4C)cn3C)cn2C)cn1C` [Compound B-215], for which the EC50 in assay [1] (setting [3]) was in the range of 0.1 to 0.5 µM.
Consider `Cn1cc(NC(=O)c2nc(NC(=O)CCNC(=O)c3cc(NC(=O)c4nccn4C)cn3C)cn2C)cc1C(=O)NCCCC(=O)Nc1cn(C)c(C(=O)NCCC(=O)Nc2cc(C(=O)Nc3cn(C)c(C(=O)NCCC(=O)N4CCC(N5CCN(CCOCCOCCOCCOCCN)CC5)CC4)n3)n(C)c2)n1` [Compound B-24], for which the EC50 in assay [1] (setting [3]) is above 1 µM.
